Data on six compounds can be found in paper PMC8009417, “Selective killing of homologous recombination-deficient cancer cell lines by inhibitors of the RPA:RAD52 protein-protein interaction” (PLoS ONE, 2021).

pEC50, pIC50: −log10 of the molar value.

In test [1] the target is RAD52 ssDNA binding domain. More on the design: method as in PMID 26548611. The note with it: read-out: IC50, allosteric inhibitor of the RAD52 ssDNA binding domain; cited from earlier work.
In test [2] the target is RPA, endogenous in U2OS cells (human (endogenous in U2OS)) (UniProt P15927).
Test [3] has as its target T1, RPA:RAD52 protein-protein interaction (Homo sapiens, UniProt P43351).
T1 construct: made in house
T1 sequence (P43351 1-418): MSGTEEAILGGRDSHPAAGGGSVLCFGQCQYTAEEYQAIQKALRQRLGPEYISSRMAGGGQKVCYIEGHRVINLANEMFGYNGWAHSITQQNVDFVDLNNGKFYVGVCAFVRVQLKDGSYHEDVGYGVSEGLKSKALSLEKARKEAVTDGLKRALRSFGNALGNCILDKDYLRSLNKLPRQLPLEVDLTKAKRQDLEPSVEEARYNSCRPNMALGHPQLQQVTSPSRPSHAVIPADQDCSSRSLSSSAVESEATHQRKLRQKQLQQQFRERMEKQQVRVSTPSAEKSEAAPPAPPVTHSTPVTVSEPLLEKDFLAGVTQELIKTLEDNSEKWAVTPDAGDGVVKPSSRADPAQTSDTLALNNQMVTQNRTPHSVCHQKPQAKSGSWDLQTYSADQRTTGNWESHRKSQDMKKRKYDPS
In words: FluorIA (Fluorescence-based protein-protein Interaction Assay), GFP-RAD52 binding to plate-coated RPA. The note with it: polynomial curve fitting; 15 dose concentrations 0.03–500 μM, triplicate; RAD52(1–303) positive control; read-out: EC50 in FluorIA (inhibition of RPA:RAD52 PPI). The protocol: A newly developed fluorescence-based assay for detecting protein-protein interactions, FluorIA was used to identify SMIs of RPA:RAD52 PPI. The detailed FluorIA protocol is published elsewhere. Briefly, 384-well plates (Thermo Fisher Scientific, #460518) were coated with purified RPA. Then compounds or controls were added and incubated with freshly prepared GFP-RAD52. RAD52(1–303) without GFP-tag and buffer (including DMSO) only were used as controls. Then the relative fluorescence (RFU) was measured using a POLARstar OPTIMA plate reader (BMG LABTECH) on emptied plates at an excitation/emission (for eGFP) of 485/520 nm at 2500 gain setting.
Three chemical libraries the 355-member SelleckChem Kinase Inhibitor Library, the 1200-member Prestwick Chemical Library, and the 100,000-member ChemBridge library were used for the screening. The screening of the SelleckChem Kinase Inhibitor and the Prestwick libraries were performed at 10 and 100 μM each in duplicate. The screening of the ChemBridge library was conducted at 100 μM. […] The statistical criteria for a hit were fully described in Al-Mugotir et al.. Each hit was verified in triplicate at 10 and 100 μM.
The in vitro EC50 value of each hit was determined with FluorIA. The chemicals were serially diluted by two-fold increments from 0.030 to 500 μM and analyzed in triplicate with FluorIA. RAD52(1–303) was used as a positive control and buffer with DMSO was used as a negative control. Candidate SMIs with strong inhibition were purchased, and a 1D NMR analysis was carried out to verify their identities. The eleven candidates SMIs were purchased as follows: 5137134, 5246481, 52614577,5316833, 5373030, and 7623574 from Chembridge HIT2LEAD, 5989499 from Wuxi lab network, 5375405 from Aronis, quinacrine and mitoxantrone from Sigma Aldrich, and doxorubicin from LC labs. D-I03 was purchased from Molport. Their effectiveness in inhibiting the RPA:RAD52 PPI was confirmed after purchase with the FluorIA as described above (S1 Fig).
Supplementary file pone.0248941.s001.tif: S1 Fig Validation experiments of eleven hits with the FlourIA. Sixteen treatment concentrations were used (0.030–500 μM) increasing by two-fold increments of each molecule/drug obtained as a hit in HTS FluorIA. RAD52(1–303) without GFP-tag and buffer (including DMSO) only were used as controls. Percent inhibition was calculated as follows: [(RFUSMI—RFURAD52(1–303)) / (RFUDMSO—RFURAD52(1–303))]*100, where RFU is relative fluorescence unit. An average of triplicate measurements was used. The treatment points for quinacrine and doxorubicin beyond 125 μM were showing characteristics of aggregation and were not used. (TIF) Click here for additional data file.

Test [4] deals with BRCA1-deficient HCC1937 breast cancer cells (empty vector, BRCA1-). In words: Cell viability assay (PrestoBlue, 72 h), HCC1937 with empty vector. The format is cell-based. The note with it: Homo sapiens, estimated from the graphs. The protocol:
(§1) Fig 2 BRCA1-deficient HCC1937 breast cancer cell line survival assay. BRCA1-deficient HCC1937 cells corrected with wild-type BRCA1 gene (BRCA1+; closed triangle), and with an empty vector (BRCA1-; closed circle) were examined. For each experiment (Figs 2–4), cell lines were treated with nine concentrations of (A) quinacrine, (B) mitoxantrone, and (C) doxorubicin in 96-well culture plates at 5x10^3 cell/well density. Each treatment point was made in sextuplicate. Treated cells were incubated for 72 hours at 37°C before assessing cell viability using PrestoBlue. Data were normalized to vehicle control. The experiment was repeated three times. Error bars indicate the standard deviation.
(§2) The HCC1937 cell line (a gift from Dr. Simon Powell Memorial Sloan Kettering (MSK), New York) was derived from a mammary gland primary ductal carcinoma at the early onset of a tumor. This TNBC patient carried a germline mutation in BRCA1, resulting in carboxy-terminal truncated protein and loss of the second BRCA1 allele. BRCA1-restored and empty vector cell lines were also obtained by transfection of a vector containing a full-length human BRCA1 cDNA or an empty vector, respectively. The HCC1937 cell lines were cultured as described.
(§3) Cells were seeded 5 x 10^3 cells per well in 96-well plates in a 90 μL volume per well one day before treatment. Cells in 96-well plates were incubated with increasing concentrations of the compound or vehicle control (1% DMSO) for 72 hours. Each treatment plate contained nine concentrations of a compound in sextuplicate. Growth inhibition was determined using PrestoBlue reagent (Life Technologies, #A13261). Fluorescent measurements were taken using a Spectramax M5 plate reader (MDS). To assess cells’ replication in the absence of compounds as a control, six wells on each plate were treated with vehicle to be read in triplicate at the initial treatment day (T0) and at 72-hour read (T100).

For test [5], the system named is HCC1937 cells corrected with wild-type BRCA1 gene (BRCA1+). Description: Cell viability assay (PrestoBlue, 72 h), HCC1937+BRCA1. It counts as cell-based. As to conditions: Homo sapiens, estimated from the graphs. The protocol: as §1, §2, §3
The test system of test [6] is BRCA1-deficient UWB1.289 ovarian cancer cells (BRCA1-). Description: Cell viability assay (PrestoBlue, 72 h), UWB1.289. It counts as cell-based. The note with it: Homo sapiens, UWB1289, estimated from the graphs.
Description: (§4) BRCA1-deficient UWB1.289 cells corrected with wild-type BRCA1 gene (BRCA1+; closed triangle) and parental BRCA1-deficient UWB1.289 (BRCA1-; closed circle). Two PARPi-resistant cell lines derived from UWB1.289, UWB1.289.SYr12 (closed diamond) and UWB1.SYr13 (X), were also examined.
(§5) UWB1.289 (a gift from Dr. Lee Zou, Harvard Medical School, Boston, MA) were derived from a serous ovarian carcinoma with a germline BRCA1 mutation and a deletion of the wild-type allele. […] Two PARP-resistant cell lines, SYr12 and SYr13, were derived from the UWB1.289. The Mammary Epithelial growth media, along with SupplementMix solution for UWB1 cell lines, were obtained from PromoCell GmbH and mixed as described.
as §3

The test system of test [7] is UWB1.289 cells corrected with wild-type BRCA1 gene (BRCA1+). In words: Cell viability assay (PrestoBlue, 72 h), UWB1.289+BRCA1. As to conditions: Homo sapiens, UWB1289, estimated from the graphs. The format is cell-based.
Description: as §4, §5, §3

Test [8] concerns PARPi-resistant UWB1.289.SYr12 cells. Description: Cell viability assay (PrestoBlue, 72 h), UWB1.289.SYr12. It counts as cell-based. The note with it: Homo sapiens, estimated from the graphs.
Description: as §4, §5, §3

Test [9] has as its system PARPi-resistant UWB1.SYr13 cells. Description: Cell viability assay (PrestoBlue, 72 h), UWB1.SYr13. The format is cell-based. The note with it: Homo sapiens, estimated from the graphs.
Description: as §4, §5, §3

For test [10], the system named is BRCA2-deficient PE01 ovarian cancer cells (BRCA2-). Description: Cell viability assay (PrestoBlue, 72 h), PE01. As to conditions: Homo sapiens, estimated from the graphs. The format is cell-based. The protocol:
BRCA2-deficient PE01 cell line (a gift from Dr. Toshiyasu Taniguchi, Tokai University, Japan) were derived from an ovarian cancer patient. BRCA2-proficient “revertant” cell line, C4-2 is one of eight clones derived from PE01 that has acquired resistance to both cisplatin and PARPi due to a secondary mutation that restored the BRCA2 function. PE01 and PE01 C4-2 were grown and maintained in DMEM high glucose (Hyclone) supplemented with 10% Fetal Bovine Serum (FBS, Invitrogen).
as §3

For test [11], the system named is BRCA2-revertant PE01 C4-2 cells (BRCA2+). Description: Cell viability assay (PrestoBlue, 72 h), PE01 C4-2. As to conditions: Homo sapiens, C4-2, 72 h, read-out: EC50, cell viability.

Chain of RPA, endogenous in U2OS cells (human (endogenous in U2OS)) (P15927 whole entry, looked up): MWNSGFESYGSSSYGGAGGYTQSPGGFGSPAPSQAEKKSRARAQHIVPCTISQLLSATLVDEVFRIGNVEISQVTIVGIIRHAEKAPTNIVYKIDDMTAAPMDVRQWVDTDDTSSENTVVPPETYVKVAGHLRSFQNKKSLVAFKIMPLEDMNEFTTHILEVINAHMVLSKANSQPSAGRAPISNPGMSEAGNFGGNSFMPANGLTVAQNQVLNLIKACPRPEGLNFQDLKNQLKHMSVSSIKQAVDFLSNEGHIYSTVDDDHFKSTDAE

As for `NC(Cc1cc(O)c(O)cc1O)C(=O)O` (racemic) [6-hydroxy-DL-dopa], in [1], the pIC50 was 5.96.

“RAD52, endogenous in U2OS cells (from UniProt P43351 1-418) (natural protein)” gave an inhibition of single-strand annealing (SA-GFP reporter in U2OS-SA cells, FACS) by mitoxantrone, an inhibitor of the RPA:RAD52 interaction, at 4 nM in [2] of 72%.

On to `CCN(CC)CCCC(C)Nc1c2ccc(Cl)cc2nc2ccc(OC)cc12` (stereo not shown) [Quinacrine, quinacrine], for which the pEC50 in [3] was 4.01; in test [4] it was 5.77; in test [5], 5.34; in test [6], 5.27; in test [7], under 5.00; in test [8], under 5.00. The figures for the pEC50 in test [9], in test [10] and in test [11] were under 5.00, 5.42 and 5.35, respectively.

Turning to `COc1cccc2c1C(=O)c1c(O)c3c(c(O)c1C2=O)C[C@@](O)(C(=O)CO)C[C@@H]3O[C@H]1C[C@H](N)[C@H](O)[C@H](C)O1` [Doxorubicin, doxorubicin], the pEC50 was 5.00 in test [3]; 6.52 in test [4]; 5.82 in [5]; 6.52 in [6]; 5.60 in test [7]; 6.10 in test [8]. The pEC50 in [9] was 5.60; in test [10], 7.30; in [11], 6.15.

Regarding `Cc1cc2nc3ccc(N(C)C)cc3nc2cc1N` [compound 5316833], in [3], the negative-log EC50 (pEC50) is 4.18.

Consider `Nc1cc(S(=O)(=O)O)cc2cc(S(=O)(=O)O)cc(O)c12` [compound 5137134], for which the pEC50 in test [3] is 3.98.

The term pIC50 denotes −log10 of the IC50, conventionally taken in molar units. For orientation: pEC50 means the negative decadic logarithm of the EC50, by convention in mol/L.
